Test results taken from patent publication US6803030B2, “Bile acids conjugates with metal ion chelates and the use thereof” (Bracco Imaging S.p.A., priority 2000, dated 2004).

Experiment: Pharmacokinetics screening in rats (biliary and urinary excretion, residual tissue content of gadolinium by ICP-AES)
Format: in vivo
Conditions: for Biliary % of the injected dose / Urinary % of the injected dose: anaesthetised CD(SD)BR male rats, i.v. 0.1 mmol/kg
Experimental: The experimentation was performed with the complex compound of example 1.
The screening was performed in 3 anaesthetised CD(SD)BR male rats (Charles River Italia).
The animals were maintained according to EEC Council Directive […] as included in Italian law DL116/92 (experimental typology KIN 3).
The contrast agent was injected in the vena saphena at the single dose of 0.1 mmol.kg^−1, injection rate of 6 mL-min^−1.
After the administration of the complex compound, the collection of the biological fluids in the anaesthetised rats was performed by cannulation of urinary bladder and biliary duct. The urine was collected at 0 to 60, 60 to 120, 120 to 240, 240 to 480 min after injection; the bile at −30 to 0, 0 to 15, 15 to 30, 30 to 60, 60 to 120, 120 to 240, 240 to 480 min after injection.
Animals were killed at the end of the studies by exanguination from abdominal aorta.
Blood, liver and kidneys were collected after the sacrifice for the assay of gadolinium by inductively coupled plasma atomic emission ICP-AES.

[1] = anaesthetised rats, intravenous, 0 to 480 min period
[2] = anaesthetised rats, intravenous, at 480 min after administration

## Gadolinium complex of [3α[3(S),4(S)],5β,12α]-3-[[[trans-3,4-bis[[[5-[bis[2-[bis(carboxymethyl)amino]ethyl]amino]-5-carboxypentyl]amino]carbonyl]-1-pyrrolidinyl]carbonyl]oxy]-12-hydroxycholan-24-oic acid salified with sodium (1:5) [Example 1]
Collection time 0 to 15 min
  Biliary % of the injected dose: 0.0102 ± 0.0010 % of the injected dose
Collection time 0 to 30 min
  Biliary % of the injected dose: 0.0208 ± 0.0012 % of the injected dose
Collection time 0 to 60 min
  Biliary % of the injected dose: 0.0374 ± 0.0023 % of the injected dose
  Urinary % of the injected dose: 11.2 ± 4.6 % of the injected dose
Collection time 0 to 120 min
  Biliary % of the injected dose: 0.0561 ± 0.0052 % of the injected dose
  Urinary % of the injected dose: 18.6 ± 5.0 % of the injected dose
Collection time 0 to 240 min
  Biliary % of the injected dose: 0.0950 ± 0.0073 % of the injected dose
  Urinary % of the injected dose: 27.9 ± 5.3 % of the injected dose
Collection time 0 to 480 min
  Biliary % of the injected dose: 0.175 ± 0.020 % of the injected dose
  Urinary % of the injected dose: 36.2 ± 2.7 % of the injected dose
[1]
  biliary excretion: 0.175 % of ID
  urinary excretion: 36 % of ID
[2]
  residual content in kidney: 6.7 % of the injected dose
  residual content in liver: 2.564 % of the injected dose
  residual content in plasma: 14.3 % of the injected dose
